The nature of data set [1]: Gut enzyme digestion, M. sexta gut extract. Particulars: for Fold stability improvement over Ta1b: gut extract stability testing, limit of testing 50‐fold; for half-life: M. sexta fifth instar gut extract diluted 10× in 30 mM Tris–HCl pH 8.8, 0.5–1 mg mL^−1 peptide, HPLC, single exponential decay fit, read-out: Degradation half life, Gut extract; for Degradation half time ratio to Ta1b, Gut extract: ratio of half lives in M. sexta gut extract. It is filed as in vitro ADME, Manduca sexta. As to the method: (§1) Larvae of H. zea, Spodoptera frugiperda Smith and Abbot, 1797, and Trichoplusia ni Hubner, 1802 were purchased from Benzon Research and reared to fifth instar on general purpose lepidopteran diet. Manduca sexta L. were purchased from Carolina Biological Supply (Burlington, NC) and reared to fifth instar on the supplied diet. Larvae were anesthetized on ice for 30 min, pinned on a dissection plate, and opened laterally with microdissection scissors. The foregut, midgut and hindgut were excised and washed using sterile water to remove any excess hemolymph and then transferred into a chilled 2‐mL microcentrifuge tube. The extracts were spun in a microcentrifuge at 10000 g to pellet the solids. The liquid fractions were carefully removed, sterile filtered, and stored at −80°C for future use.
(§2) For gut enzyme digestion studies, gut extract was diluted 10× with the dilution buffer (30 mM Tris–HCl, pH 8.8) and 0.5–1 mg mL^−1 of Ta1b. Samples were taken from the digestion mixture at defined timepoints and mixed with a 1:6 ratio of stop buffer (Tris–HCl pH 1–2) to halt further digest of the peptide. Samples were sterile filtered and analyzed by HPLC to determine peptide integrity and concentration.

Data set [2] is described as follows: Gut enzyme digestion, H. zea gut extract. Format: in vitro ADME, Helicoverpa zea. The note with it: extract diluted ten-fold, single exponential decay fit, HPLC. How it is done:
as §1, §2

The nature of data set [3]: Gut enzyme digestion, S. frugiperda gut extract. The note with it: extract diluted ten-fold, single exponential decay fit, HPLC. Format: in vitro ADME, Spodoptera frugiperda. As to the method:
as §1, §2

Data set [4] can be described thus: Gut enzyme digestion, T. ni gut extract. The note with it: extract diluted ten-fold, single exponential decay fit, HPLC. It is filed as in vitro ADME, Trichoplusia ni. How it is done:
as §1, §2

The nature of data set [5]: Gut enzyme digestion, stated jointly for three lepidopteran gut extracts. Format: in vitro ADME, H. zea, S. frugiperda, T. ni. The note with it: 10‐fold diluted gut extract, single exponential decay, followed up to 21 h. As to the method: as §1, §2
Data set [6] can be described thus: Protease stability, commercial trypsin digestion. It is filed as in vitro ADME, bovine. The note with it: bovine trypsin 1 mg mL^−1 in 50 mM Tris–HCl pH 8.8, 100 mM NaCl; 5 μL added to 200 μL of 10.7 mg mL^−1 peptide; room temperature; HPLC; read-out: Degradation half life, Trypsin. As to the method:
(§3) For commercial enzyme digestion studies, bovine trypsin (Sigma‐Aldrich, St. Louis, MO) was prepared at a concentration of 1 mg mL^−1 in 50 mM Tris–HCl pH 8.8, 100 mM NaCl. Bovine chymotrypsin (Sigma‐Aldrich) was prepared at a concentration of 1 mg ml^−1 in 50 mM MES pH 6.0, 100 mM NaCl. For each digestion condition, 5 μL of trypsin or chymotrypsin solution were added to 200 μL of 10.7 mg mL^−1 peptide and incubated at room temperature. Samples were taken at defined timepoints, sterile filtered, and analyzed immediately by HPLC.

The target of another data set is T1, bovine trypsin (Bos taurus, UniProt P00760).
T1 construct: purchased Sigma-Aldrich
T1 sequence (P00760 24-246): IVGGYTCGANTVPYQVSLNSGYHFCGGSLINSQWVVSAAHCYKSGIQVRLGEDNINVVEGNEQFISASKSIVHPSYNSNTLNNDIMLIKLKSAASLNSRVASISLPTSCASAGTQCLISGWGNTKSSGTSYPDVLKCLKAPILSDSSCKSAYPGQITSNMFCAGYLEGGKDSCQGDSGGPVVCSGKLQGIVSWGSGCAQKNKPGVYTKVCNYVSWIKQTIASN
Kind of data set: Protease stability, commercial trypsin digestion. Format: in vitro ADME. The note with it: for Degradation half time ratio to Ta1b, Trypsin: ratio of half lives with bovine trypsin. As to the method: as §3

For a further data set, the system named is Musca domestica. Kind of data set: Insecticidal activity by injection into adult house flies. Format: in vivo. Particulars: adult house flies 12–18 mg, 0.5 μL into dorsal thorax, mortality 24 h post‐injection, 10 flies per treatment, at least triplicate, four‐parameter sigmoidal fit. How it is done:
Adult house flies (Musca domestica L.) were immobilized with CO2 gas and those with an average weight of 12–18 mg were selected for injection. Purified solutions of Ta1b and variants were diluted in water and injected into the dorsal thorax with a 1‐cc syringe and 30‐gauge needle using a hand microapplicator (Burkard, Rickmansworth, England). Each adult was injected with 0.5 μL of solution with 10 flies per treatment in at least triplicate. Water was used as a negative control. Flies were placed into a container with moist filter paper and scored for mortality 24 h post‐injection. Ten non‐injected flies were placed in a container to assess CO2 mortality. Response curves were fitted with a four‐parameter sigmoidal function (GraphPad Prism, Boston, MA) to determine LD50 values.
(§4) To compare the potency of Ta1b, we also injected the following active ingredients into M. domestica and H. zea: GS‐ω/κ (Spear, Vestaron), spinosad (Monterey Garden Insect Spray, Monterey), thiamethoxam (Optigard® Flex, Syngenta), and chlorantraniliprole (ALTACOR®, FMC).

In a further data set the test system is Helicoverpa zea. The data set can be described thus: Insecticidal activity by injection into fourth instar larvae. Format: in vivo. The note with it: fourth instar larvae, 1 μL into penultimate proleg, mortality 24 h after injection, eight larvae per treatment, at least triplicate. As to the method:
Helicoverpa zea (Boddie, 1850) larvae were reared from eggs (Benzon, Carlisle, PA) to fourth instar on general purpose lepidopteran diet (F9772, Frontier Agricultural Sciences, Newark, DE). Pre‐weighed larvae immobilized on ice were injected into their penultimate proleg as described for M. domestica with 1 μL solution and eight larvae per treatment in at least triplicate. After injection, larvae were placed in a well of a 32‐well tray filled with 5 mL lepidopteran diet. The trays were then placed in an incubator at 28° C with 16:8 h light: dark cycle and evaluated 24 h after injection for mortality.
as §4

The subject of a further data set is H. zea neonates. Kind of data set: Insecticidal activity by foliar spray (lettuce leaf disk feeding). It is filed as in vivo, Helicoverpa zea. As to the method:
Organic romaine lettuce was cut into 30‐mm diameter disks and sterilized with a 140‐ppm bleach solution followed by a triple rinse in water. The lettuce disks were then sprayed on either side using a Potter Tower Sprayer (Burkard, Rickmansworth, England) with insecticidal solutions, allowing them to dry between sprays. Once fully sprayed and dried, disks were placed into an arena, which was a 32‐well rearing tray containing 5 mL of 1% w/v agar. One leaf disk was placed in each well and a single neonate H. zea was applied to each of the 12 leaf discs per treatment with four experimental replicates per treatment. The trays were then placed in a 28° C incubator with a 16:8 h light: dark cycle. Mortality was evaluated 4 days after application.

For a further data set, the system named is Pieris brassicae. Kind of data set: Field trial on cabbage caterpillar on cabbage. Format: in vivo. The note with it: spinosad (Laser, 96 g product ha^−1) or Btk alone; two applications 7 days apart; four replicate plots. As to the method: A dose–response of U1‐AGTX‐Ta1b‐QA (Ta1b‐QA) combined with Bacillus thuringiensis subsp. kurstaki (Btk; DiPel DF®, Valent) was performed by Agricola 2000 in a randomized complete block design (RCBD) on cabbage caterpillar (Pieris brassicae L.) on cabbage in Palagiano, Italy with four replicate plots of 1 × 15 m in open‐field containing 25 plants each. Treatments included an untreated check, three rates (22, 34, 45 g AI ha^−1) of an 8.5% w/w spray‐dried sample of Ta1b‐QA together with Btk (DiPel DF®, Valent, 0.5 kg product ha^−1), and the reference standard spinosad (Laser®, Corteva, 96 g product ha^−1). Treatments were applied two times, 7 days apart, with a backpack CO2 sprayer in a spray volume of 800 L ha^−1. […] Data were analyzed by one‐way ANOVA followed by a Tukey HSD LSM test with significance set at P < 0.05 (GraphPad Prism).

Bridges are numbered along the chain shown (N, C = ends). Where no end group is shown, it is not given here.

On to “EPDEICRAQMTNKEFTYKSNVCNNCGDQVAACEAECFRNDVYTACHEAQKG (disulfide 6-36, 22-32, 25-45) [Mutant R9Q]”, for which, in data set [1], the “Fold stability improvement over Ta1b” value is on record as more than 50. Moreover, the “Degradation half-life in H. zea gut extract” value in data set [2] is given as “could not be fit to an exponential decay”. For the same compound, in [3], the “Degradation half-life in S. frugiperda gut extract” value is reported as “could not be fit to an exponential decay”. Besides, in data set [4], the “Degradation half-life in T. ni gut extract” value is listed as “could not be fit to an exponential decay”. The “Degradation half‐lives in gut extracts from H. zea, S. frugiperda, and T. ni” value in data set [5] is “too little degradation to calculate half‐lives even after 21 h”.

On to “EPDEICRARMTNAEFTYKSNVCNNCGDQVAACEAECFRNDVYTACHEAQKG (disulfide 6-36, 22-32, 25-45) [Mutant K13A]”, for which the half-life at 10.4 mg mL^-1 in [6] stood at 4.9 h. The “Degradation half time ratio to Ta1b, Trypsin” value at bovine trypsin was 1.0.

As to “EPDEICRANMTNKEFTYKSNVCNNCGDQVAACEAECFRNDVYTACHEAQKG (disulfide 6-36, 22-32, 25-45) [Mutant R9N]”, the “Fold stability improvement over Ta1b” value in [1] is more than 50.

Turning to “EPDEICRNRMTNKEFTYKSNVCNNCGDQVAACEAECFRNDVYTACHEAQKG (disulfide 6-36, 22-32, 25-45) [Mutant A8N]”, in [1], the “Fold stability improvement over Ta1b” value is on record as 1.8.

`CN1COCN(Cc2cnc(Cl)s2)/C1=N\[N+](=O)[O-]` [Thiamethoxam, thiamethoxam]: the “Insecticidal LD50, injection, M. domestica (95% CI)” value in the data set with Musca domestica was 23.2 (18.1–29.6) nmol g^−1. The “Insecticidal LD50, injection, H. zea (95% CI)” value with Helicoverpa zea was 31.9 (20.2–52.1) nmol g^−1.

Take “EPDEICRAHMTNKEFTYKSNVCNNCGDQVAACEAECFRNDVYTACHEAQKG (disulfide 6-36, 22-32, 25-45) [Mutant R9H]”: the “Fold stability improvement over Ta1b” value in data set [1] is given as 16.2.

Turning to “EPDEICRAAMTNKEFTYKSNVCNNCGDQVAACEAECFRNDVYTACHEAQKG (disulfide 6-36, 22-32, 25-45) [Mutant R9A]”, in [6], the half-life at 10.4 mg mL^-1 was more than 100 h. The “Digestion by bovine trypsin (HPLC)” value at bovine trypsin (pH 8.8, room temperature, HPLC chromatogram) is “complete abrogation of Ta1b digestion”. In addition, on bovine trypsin, the “Degradation half time ratio to Ta1b, Trypsin” value is given as more than 20. In data set [1], the half-life worked out at 4.97 h and the “Degradation half time ratio to Ta1b, Gut extract” value came out at 213.

As to “EPDEICRARMTNKEFTYKSNVCNNCGDQVAACEAECFANDVYTACHEAQKG (disulfide 6-36, 22-32, 25-45) [Mutant R38A]”, the half-life at 10.4 mg mL^-1 in [6] stood at 31 h. Also, on bovine trypsin, the “Degradation half time ratio to Ta1b, Trypsin” value was found to be 6.5. In [1], the half-life came to 0.215 h and the “Degradation half time ratio to Ta1b, Gut extract” value is recorded as 9.2.

Take “GSQYCVPVDQPCSLNTQPCCDDATCTQERNENGHTVYYCRA (disulfide 5-20, 12-25, 19-39) [GS‐ω/κ, reference compound]”: the “Insecticidal LD50, injection, M. domestica (95% CI)” value in the data set with Musca domestica is reported as 0.19 (0.17–0.21) nmol g^−1. Further, the “Insecticidal LD50, injection, H. zea (95% CI)” value in the data set on Helicoverpa zea was 5.9 (4.9–6.9) nmol g^−1. For the same compound, the “Day 4 mortality of H. zea on treated lettuce leaves, peptide alone” value with H. zea neonates (100 μg cm^−2, neonates, compared to untreated) is given as “significant activity on its own”. For the same compound, the “Day 4 mortality of H. zea on treated lettuce leaves, peptide in combination with Btk” value with H. zea neonates (100 μg cm^−2 peptide with sublethal Btk 0.17 μg cm^−2, neonates) is given as “activity is increased”. The “Degradation when incubated with gut extract (HPLC)” value in data set [1] (M. sexta gut extract, HPLC peak) is recorded as “did not show any degradation”.

Consider “EPDEICRARMPNKEFTYKSNVCNNCGDQVAACEAECFRNDVYTACHEAQKG (disulfide 6-36, 22-32, 25-45) [Mutant T11P]”, for which the “Fold stability improvement over Ta1b” value in [1] is more than 50.

Turning to spinosad, the “Insecticidal LD50, injection, M. domestica (95% CI)” value in the data set with Musca domestica is reported as 1.5 (0.9–2.4) nmol g^−1. In the data set with Helicoverpa zea, the “Insecticidal LD50, injection, H. zea (95% CI)” value is on record as 0.20 (0.14–0.31) nmol g^−1. Besides, in the data set with Pieris brassicae, the “Mean % control of larvae relative to the untreated check, comparators” value is 57.8%.

The compound “H-ICRAQMTNKEFTYKSNVCNNCGDQVAACEAECFRNDVYAACHEAQKG-OH (disulfide 2-32, 18-28, 21-41)” registered a Reduction in melting temperature vs Ta1b-QA of 14.2 °C.

Consider `CNC(=O)c1cc(Cl)cc(C)c1NC(=O)c1cc(Br)nn1-c1ncccc1Cl` [Chlorantraniliprole, chlorantraniliprole], for which the “Insecticidal LD50, injection, M. domestica (95% CI)” value with Musca domestica is “no activity”. Besides, the “Insecticidal LD50, injection, H. zea (95% CI)” value with Helicoverpa zea was 0.22 (0.15–0.37) nmol g^−1.

As for “EPDEICRARMTNKEFTYASNVCNNCGDQVAACEAECFRNDVYTACHEAQKG (disulfide 6-36, 22-32, 25-45) [Mutant K18A]”, in [6], the half-life at 10.4 mg mL^-1 is 19.9 h. Besides, at bovine trypsin, the “Degradation half time ratio to Ta1b, Trypsin” value is 4.1.

As to “EPDEICAARMTNKEFTYKSNVCNNCGDQVAACEAECFRNDVYTACHEAQKG (disulfide 6-36, 22-32, 25-45) [Mutant R7A]”, the half-life at 10.4 mg mL^-1 in [6] turned out to be 2.2 h. Further, the “Degradation half time ratio to Ta1b, Trypsin” value at bovine trypsin amounted to 0.5.

As for “EPDEICRSRMTNKEFTYKSNVCNNCGDQVAACEAECFRNDVYTACHEAQKG (disulfide 6-36, 22-32, 25-45) [Mutant A8S]”, the “Fold stability improvement over Ta1b” value in data set [1] turned out to be 12.1.

For orientation: half-life means the time in which the quantity being followed falls by half.
